Results from US20070265451A1, “Process for the preparation of oxazolidinones and method of use thereof” (Board of Trustees of Michigan State University, priority 2001, published 2007).
In brackets after ≈: the same amount, converted by molar mass.

Test system: Staphylococcus aureus 29213
Assay: Broth microdilution MIC, Staphylococcus aureus ATCC 29213
Assay type: cell-based
Conditions: Staphylococcus aureus, ATCC29212, Table 1; SA, strain ATCC 29212; read-out: MIC90-100 SA ATCC 29212
From the text: (§1) See, NCCLS document M7-A5. Methods for Dilution Antimicrobial Susceptibility Tests for Bacteria That Grow Aerobically; Approved Standard-Fifth Edition. Volume 20, Number 2. January 2000, (ISBN 1-56238-394-9) and Lorian V. Antibiotics. Laboratory Medicine. 4th ed. Baltimore: Williams and Wilkins, pp. 52-111 (1996). For subsequent testing, the following strains have been used: Staphylococcus aureus NRS4 (992; HIP5836; New Jersey) (Smith et al., New Engl. J. Med. 340: 493-501 (1999); Tenover et al., J. Clin. Microbiol. 36: 1020-1027 (1998)), Staphylococcus aureus NRS3 (963sm; HIP5827; Michigan) (Smith et al., ibid.; Tenover et al., ibid.), Staphylococcus aureus NRS103 (Becker) (Karakawa and Vann, Sem. Infect. Dis. 4: 285 (1982), Staphylococcus aureus NRS102 (Reynolds) Karakawa and Vann, ibid; McMurray et al., JID 162: 759-762 (1990)), Staphylococcus epidermidis NRS101 (ATCC 35984), Streptococcus pneumoniae (ATCC 49619), Enterococcus faecalis (ATCC 51299), and Staphylococcus aureus (ATCC 43300.
(§2) Stock cultures of these strains were obtained by seeding colonies from overnight streak plates (Tryptic Soy Agar II (TSAII) and 5% sheep's blood (SB) agar plates: Becton Dickinson, CA#2211261) into sterile Mueller-Hinton Broth (MHB)(Becton Dickinson, CA#211443) and growing the suspensions to mid-late log phase in 13 mL screw-cap tubes. Glycerol (Sigma, CA#G-6279) was sterilized by autoclaving for 15 minutes at 121° C. in 6 mL volumes, and then stored at 2-8° C. This was diluted to 20% in dH2O, and then added 1:1 (250 μL:250 μL, 10% final glycerol concentration) to the logarithmically growing bacterial suspension of each strain. Tubes were frozen and stored at −70° C. Purity of the stock cultures was tested by thawing one tube of each strain in a water bath at 37° C. and plating them on TSAII with 5% SB. Plates were incubated overnight at 37° C. and colonies were examined for morphology. Growth curves and approximate CFU/mL were also obtained.
(§3) High purity substituted oxazolidinones prepared according to the method of the present invention and a ZYVOX standard (ZYVOX is a trade name for linezolid available from Pharmacia Corporation) were provided by Synthon Corporation, Monmouth Junction, N.J. Compounds were dissolved at 10 mg/mL in DMSO, as after a dilution of approx. 39.0 to reach the desired final starting concentration of 256 ug/ml, the concentration of DMSO is approximately 2.5%. Compounds were then stored at room temperature (25° C.) in the dark.
(§4) Antimicrobial susceptibility screening was as follows. All compounds were initially screened for activity in duplicate at 256 μg/mL (2.5% DMSO), including ZYVOX, the positive control for antimicrobial activity. A single well of bacterially inoculated 2.5% DMSO served as a positive control for bacterial growth, while a well of DMSO inoculated with of 50 μL of sterile 0.9% saline served as a negative growth control. Controls were prepared on every microplate, so that 46 was the maximum number of compounds that were screened per plate. Broth was pipetted into sterile microcentrifuge tubes, to which the compounds were then added (1:19.53 dilution or 2× final concentration). Each tube was vortexed, and 50 μL was immediately transferred to the microplate wells for each strain. Solubility was assessed by visual observation. MB (medium broth solubility) was recorded if the solution appeared only slightly cloudy. LB (low broth solubility) was recorded if the solution was extremely cloudy, and especially if larger, clumpy precipitates formed. Bacteria were grown as described above, although absorbance was measured at 650 nm and bacteria were diluted to an initial OD of 0.12-0.15. Bacteria were then further diluted 1:100 with 0.9% sterile saline. Within 15 minutes of this final dilution, 50 μL of this suspension was added to each well for a final volume of […], and a final bacterial concentration of 1×10^5 CFU/mL (except for the negative control well). Plates were grown as above and all observations were recorded. […]

| Structure (SMILES) | MIC90 [µg/mL] |
| --- | --- |
| CC(C)N1C[C@@H](CNSc2ccc([N+](=O)[O-])cc2)OC1=O [Compound 1705] | 2 (≈ 6.42 µM) |
| CCN1C[C@H](CNSc2ccc([N+](=O)[O-])cc2)OC1=O [Compound 1715] | 2 (≈ 6.73 µM) |

Test system: Enterococcus faecalis 29212
Assay: Broth microdilution MIC, Enterococcus faecalis ATCC 29212
Assay type: cell-based
Conditions: Enterococcus faecalis, ATCC29213, Table 1; EF, strain printed ATCC 29213; read-out: MIC90-100 EF ATCC 29213

| Structure (SMILES) | MIC90 [µg/mL] |
| --- | --- |
| CC(C)N1C[C@@H](CNSc2ccc([N+](=O)[O-])cc2)OC1=O [Compound 1705] | 4 (≈ 12.8 µM) |
| CCN1C[C@H](CNSc2ccc([N+](=O)[O-])cc2)OC1=O [Compound 1715] | 4 (≈ 13.5 µM) |

Test system: Staphylococcus aureus NRS4 (992; HIP5836; New Jersey)
Assay: Broth microdilution MIC, MR SA New Jersey
Assay type: cell-based
Conditions: Staphylococcus aureus, NRS4, methicillin resistant SA, strain New Jersey; read-out: MIC90-100 MR SA New Jersey
From the text: as §1, §2, §3, §4

| Structure (SMILES) | MIC90 [µg/mL] |
| --- | --- |
| CC(C)N1C[C@@H](CNSc2ccc([N+](=O)[O-])cc2)OC1=O [Compound 1705] | 3 (≈ 9.64 µM) |
| CCN1C[C@H](CNSc2ccc([N+](=O)[O-])cc2)OC1=O [Compound 1715] | 3 (≈ 10.1 µM) |

Test system: Staphylococcus aureus NRS3 (963sm; HIP5827; Michigan)
Assay: Broth microdilution MIC, MR SA Michigan
Assay type: cell-based
Conditions: Staphylococcus aureus, NRS3, methicillin resistant SA, strain Michigan; read-out: MIC90-100 MR SA Michigan
From the text: as §1, §2, §3, §4

| Structure (SMILES) | MIC90 [µg/mL] |
| --- | --- |
| CC(C)N1C[C@@H](CNSc2ccc([N+](=O)[O-])cc2)OC1=O [Compound 1705] | 2 (≈ 6.42 µM) |
| CCN1C[C@H](CNSc2ccc([N+](=O)[O-])cc2)OC1=O [Compound 1715] | 3 (≈ 10.1 µM) |

Test system: Enterococcus faecalis (ATCC 51299)
Assay: Broth microdilution MIC, Enterococcus faecalis ATCC 51299
Assay type: cell-based
Conditions: ATCC51299, vancomycin sensitive EF, ATCC 51299, read-out: MIC90-100 VS EF ATCC 51299
From the text: as §1, §2, §3, §4

| Structure (SMILES) | MIC90 [µg/mL] |
| --- | --- |
| CC(C)N1C[C@@H](CNSc2ccc([N+](=O)[O-])cc2)OC1=O [Compound 1705] | 8 (≈ 25.7 µM) |
| CCN1C[C@H](CNSc2ccc([N+](=O)[O-])cc2)OC1=O [Compound 1715] | 8 (≈ 26.9 µM) |

Test system: Staphylococcus aureus (ATCC 43300)
Assay: Broth microdilution MIC, MR SA ATCC 43300
Assay type: cell-based
Conditions: ATCC43300, methicillin resistant SA, read-out: MIC90-100 MR SA ATCC 43300
From the text: as §1, §2, §3, §4

| Structure (SMILES) | MIC90 [µg/mL] |
| --- | --- |
| CC(C)N1C[C@@H](CNSc2ccc([N+](=O)[O-])cc2)OC1=O [Compound 1705] | 4 (≈ 12.8 µM) |
| CCN1C[C@H](CNSc2ccc([N+](=O)[O-])cc2)OC1=O [Compound 1715] | 4 (≈ 13.5 µM) |

Test system: Staphylococcus aureus NRS102 (Reynolds)
Assay: Broth microdilution MIC, Pen. R SA Reynolds
Assay type: cell-based
Conditions: strain Reynolds, read-out: MIC90-100 Pen. R SA Reynolds
From the text: as §1, §2, §3, §4

| Structure (SMILES) | MIC90 [µg/mL] |
| --- | --- |
| CC(C)N1C[C@@H](CNSc2ccc([N+](=O)[O-])cc2)OC1=O [Compound 1705] | 32 (≈ 103 µM) |
| CCN1C[C@H](CNSc2ccc([N+](=O)[O-])cc2)OC1=O [Compound 1715] | 32 (≈ 108 µM) |

Test system: Staphylococcus aureus NRS103 (Becker)
Assay: Broth microdilution MIC, Ref SA Becker
Assay type: cell-based
Conditions: strain Becker, read-out: MIC90-100 Ref SA Becker
From the text: as §1, §2, §3, §4

| Structure (SMILES) | MIC90 [µg/mL] |
| --- | --- |
| CC(C)N1C[C@@H](CNSc2ccc([N+](=O)[O-])cc2)OC1=O [Compound 1705] | 4 (≈ 12.8 µM) |
| CCN1C[C@H](CNSc2ccc([N+](=O)[O-])cc2)OC1=O [Compound 1715] | 8 (≈ 26.9 µM) |

Test system: Myeloid bone marrow cells
Assay: Bone marrow cell growth inhibition, myeloid
Assay type: cell-based
Conditions: not given
From the text: (§5) In general, many of the substituted oxazolidinones were as effective as ZYVOX.

| Structure (SMILES) | IC50 [µg/mL] |
| --- | --- |
| CC(C)N1C[C@@H](CNSc2ccc([N+](=O)[O-])cc2)OC1=O [Compound 1705] | 5 (≈ 16.1 µM) |
| CCN1C[C@H](CNSc2ccc([N+](=O)[O-])cc2)OC1=O [Compound 1715] | 5 (≈ 16.8 µM) |

Test system: Erythroid bone marrow cells
Assay: Bone marrow cell growth inhibition, erythroid
Assay type: cell-based
Conditions: not given
From the text: as §5

| Structure (SMILES) | IC50 [µg/mL] |
| --- | --- |
| CC(C)N1C[C@@H](CNSc2ccc([N+](=O)[O-])cc2)OC1=O [Compound 1705] | 0.5 (≈ 1.61 µM) |
| CCN1C[C@H](CNSc2ccc([N+](=O)[O-])cc2)OC1=O [Compound 1715] | 0.7 (≈ 2.35 µM) |

Test system: Megakaryocytic bone marrow cells
Assay: Bone marrow cell growth inhibition, megakaryocytic
Assay type: cell-based
Conditions: not given
From the text: as §5

| Structure (SMILES) | IC50 [µg/mL] |
| --- | --- |
| CC(C)N1C[C@@H](CNSc2ccc([N+](=O)[O-])cc2)OC1=O [Compound 1705] | 0.08 (≈ 0.257 µM) |
| CCN1C[C@H](CNSc2ccc([N+](=O)[O-])cc2)OC1=O [Compound 1715] | 0.08 (≈ 0.269 µM) |
